Data as given in US9927424B2, “Assays for identifying compounds that modulate bitter taste” (Chromocell Corporation, priority 2013, dated 2018).

Experiments:
Format in all cases: cell-based
[1] = target: T1, TAS2R9 (Homo sapiens, UniProt Q9NYW1); test: Calcium fluorescence functional assay, TAS2R9 cell line with mouse Gα15; conditions: for TAS2R9 bitter receptor activity (functional response): 20 mM tastant, change in intracellular calcium; for EC50: approximately, increasing concentrations of tastant
T1 construct: expressed in transfected cells
T1 sequence (Q9NYW1 1-312): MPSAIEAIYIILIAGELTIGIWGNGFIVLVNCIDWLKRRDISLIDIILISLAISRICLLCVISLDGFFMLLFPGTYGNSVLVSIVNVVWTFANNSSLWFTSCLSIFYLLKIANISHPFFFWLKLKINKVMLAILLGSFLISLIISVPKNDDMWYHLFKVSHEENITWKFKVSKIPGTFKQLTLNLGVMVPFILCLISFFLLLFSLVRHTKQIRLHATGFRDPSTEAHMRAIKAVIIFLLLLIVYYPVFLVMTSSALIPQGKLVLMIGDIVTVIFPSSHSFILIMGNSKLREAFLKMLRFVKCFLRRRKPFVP
Description: (§1) A panel of cell lines expressing eight specific bitter taste receptors, a subset of the panel of twenty-five bitter receptors described in International Patent Application Publication WO 2010/088633 (see, e.g., Example 26), was used for the purpose of these analyses. Accordingly, each cell line of the panel expressed a human bitter taste receptor and mouse Gα15 signaling protein.
(§2) Each of the Examples below utilized the following functional assay: • Day 1: Stable cell lines were seeded onto black wall/clear bottom 96-well, plates (e.g., Corning, 3904). Approximately 40K cells were added per well and incubated at 37° C., 5% CO2 overnight in cell growth media (DMEM (Sigma, D5796) supplemented with 10% Fetal Bovine Serum (Sigma, 5178), 2 mM Glutamine (Sigma, G7513)). • Day 2: Growth media was discarded and cells were incubated at 37° C., 5% CO2 for 60 minutes in 100 ul of load solution containing 1× Ca-3 dye (Molecular Devices, R8090), 1% DMSO in buffer containing 130 mM NaCl, 2 mM CaCl2, 5 mM KCl, 1.2 mM MgCl2, 10 mM HEPES and 10 mM Glucose (pH 7.0). Probenecid was not included in the load solution. • Functional assay: After dye loading, cell plates were placed in a fluorescent plate reader (e.g., FDSS6000 (Hamamatsu, Japan)) and receptor stimulation was measured by adding 50 ul of 3× concentrated ligand/agonist stock. Fluorescence was monitored continuously for 10 s before agonist addition and for 100-250 s after stimulation with agonist.
(§3) Receptor Activation is defined as follows: • % Activation=[((Maximum signal fluorescence−Minimum signal fluorescence)−(Maximum control fluorescence−Minimum control fluorescence))/(Maximum buffer fluorescence−Minimum buffer fluorescence)]*100 • Functional Response=[(Maximum signal fluorescence−Minimum signal fluorescence)−(Maximum control fluorescence−Minimum control fluorescence)] • Signal fluorescence: refers to the change in fluorescence seen with addition of ligand • Control fluorescence: refers to the change in fluorescence seen with addition of buffer (negative control) • Calcium signals from ligand and control were normalized to the basal fluorescence of the cells prior to the stimulation.
(§4) A concentration analysis was performed and EC50 values were calculated by nonlinear regression using the formula: Y=Bottom+(Top−Bottom)/(1+10^((Log EC50−X)*Hill Slope)), X=log of dose or concentration, Y=Response (increasing as X increases), Top=maximum signal, Bottom=minimum signal. EC50 (half maximal effective concentration) refers to the molar concentration of the agonist which produces 50% of the maximum possible effective response from that agonist.

[2] = target: T2, TAS2R60 (Homo sapiens, UniProt P59551); test: Calcium fluorescence functional assay, TAS2R60 cell line with mouse Gα15; conditions: for TAS2R60 bitter receptor activity (functional response): 20 mM tastant, change in intracellular calcium, data for potassium nitrate and potassium phosphate (dibasic) preliminary; for EC50: approximately, increasing concentrations of tastant
T2 construct: expressed in transfected cells
T2 sequence (P59551 1-318): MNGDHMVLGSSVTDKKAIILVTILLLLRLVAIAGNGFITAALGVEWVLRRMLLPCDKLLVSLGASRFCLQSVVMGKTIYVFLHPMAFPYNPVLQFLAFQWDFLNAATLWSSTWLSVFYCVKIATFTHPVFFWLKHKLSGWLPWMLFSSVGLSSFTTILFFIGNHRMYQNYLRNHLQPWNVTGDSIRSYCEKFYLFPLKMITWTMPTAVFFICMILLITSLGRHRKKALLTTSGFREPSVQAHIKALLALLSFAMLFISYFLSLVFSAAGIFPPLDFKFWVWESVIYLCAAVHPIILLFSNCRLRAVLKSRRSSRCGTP
Description: Accordingly, each cell line of the panel expressed a human bitter taste receptor and mouse Gα15 signaling protein.
Probenecid was not included in the load solution. • Functional assay: After dye loading, cell plates were placed in a fluorescent plate reader (e.g., FDSS6000 (Hamamatsu, Japan)) and receptor stimulation was measured by adding 50 ul of 3× concentrated ligand/agonist stock. Fluorescence was monitored continuously for 10 s before agonist addition and for 100-250 s after stimulation with agonist.
as §3
A concentration analysis was performed and EC50 values were calculated by nonlinear regression using the formula: Y=Bottom+(Top−Bottom)/(1+10^((Log EC50−X)*Hill Slope)), X=log of dose or concentration, Y=Response (increasing as X increases), Top=maximum signal, Bottom=minimum signal.

[3] = target: T3, TAS2R14 (Homo sapiens, UniProt Q9NYV8); test: Calcium fluorescence functional assay, TAS2R14 cell line with mouse Gα15; conditions: for TAS2R14 bitter receptor activity (functional response): 20 mM tastant, change in intracellular calcium; for EC50: approximately, increasing concentrations of tastant
T3 construct: expressed in transfected cells
T3 sequence (Q9NYV8 1-317): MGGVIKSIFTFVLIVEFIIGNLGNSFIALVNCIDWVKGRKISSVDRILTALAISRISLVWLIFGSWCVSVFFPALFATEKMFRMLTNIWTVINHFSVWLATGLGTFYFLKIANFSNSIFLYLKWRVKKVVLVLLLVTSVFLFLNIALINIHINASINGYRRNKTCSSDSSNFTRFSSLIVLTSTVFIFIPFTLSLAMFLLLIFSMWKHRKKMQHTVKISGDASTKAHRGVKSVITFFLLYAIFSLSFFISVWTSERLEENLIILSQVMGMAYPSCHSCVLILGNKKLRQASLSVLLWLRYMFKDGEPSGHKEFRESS
Description: as §1, §2, §3, §4

[4] = target: T4, TAS2R13 (Homo sapiens, UniProt Q9NYV9); test: Calcium fluorescence functional assay, TAS2R13 cell line with mouse Gα15; conditions: for TAS2R13 bitter receptor activity (functional response): 20 mM tastant, change in intracellular calcium; for EC50: approximately, increasing concentrations of tastant
T4 construct: expressed in transfected cells
T4 sequence (Q9NYV9 1-303): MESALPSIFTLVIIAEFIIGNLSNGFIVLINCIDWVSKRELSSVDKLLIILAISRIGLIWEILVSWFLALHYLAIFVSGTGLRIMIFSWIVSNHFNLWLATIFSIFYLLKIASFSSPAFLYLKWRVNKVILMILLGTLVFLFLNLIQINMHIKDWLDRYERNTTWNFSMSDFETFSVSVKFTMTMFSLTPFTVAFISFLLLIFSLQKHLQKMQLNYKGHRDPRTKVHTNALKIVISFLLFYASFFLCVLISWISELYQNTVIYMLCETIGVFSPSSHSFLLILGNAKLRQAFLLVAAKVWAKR
Description: as §1, §2, §3, §4

Row | Structure (SMILES) | TAS2R9 bitter receptor activity (functional response) [1] | EC50 [1] [mM] | TAS2R60 bitter receptor activity (functional response) [2] | EC50 [2] [mM] | TAS2R14 bitter receptor activity (functional response) [3] | EC50 [3] [mM] | TAS2R13 bitter receptor activity (functional response) [4] | EC50 [4] [mM]
1 | O=C([O-])c1ccccc1.[K+] [potassium benzoate] | induced | 5 to 10 | induced | 5 to 10 | induced | 5 to 10 | induced | 5 to 10
2 | O=S(=O)([O-])[O-].[K+].[K+] [potassium sulfate] | induced |  | induced |  | induced |  | induced | 
3 | C/C=C/C=C/C(=O)[O-].[K+] [potassium sorbate] | induced |  | induced |  | induced |  | induced | 
4 | O=[N+]([O-])[O-].[K+] [potassium nitrate] | induced |  | induced |  | induced |  | induced | 
5 | O=C([O-])[C@H](O)[C@@H](O)[C@H](O)[C@H](O)CO.[K+] [potassium gluconate] | induced |  | did not induce |  | induced |  | induced | 
6 | O=P([O-])([O-])O.[K+].[K+] [potassium phosphate (dibasic)] | induced |  | induced |  | induced |  | induced | 
7 | CC(=O)[O-].[K+] [potassium acetate] | induced | 5 to 10 | induced | 5 to 10 | induced | 5 to 10 | induced | 5 to 10
